Reference: patent US20220331303A1, “USE OF AN OREXIN 2 RECEPTOR AGONIST FOR THE TREATMENT OF EXCESSIVE SLEEPINESS” (Takeda Pharmaceutical Company Limited, priority 2019, published 2022)

Assay: Plasma PK of Compound A after a single 9-hour IV infusion in sleep-deprived healthy male subjects
Type: in vivo, human
Protocol: This was a phase 1b, single-center, randomized, double-blind, double-dummy, placebo- and active-controlled, 4-period Williams design crossover study to evaluate the PK, PD, and safety of Compound A in sleep-deprived healthy volunteers. Compound A was administered as a 9-hour IV infusion.
Healthy adult male subjects aged 18 to 40 years, inclusive, who satisfied the inclusion and exclusion criteria were enrolled in the trial. On Day 1 of treatment period 1, eligible subjects were equally randomized to 4 treatment sequence groups (sequence 1 to 4) which defined the order of administration for Compound A LD, Compound A HD (both delivered as a 9-hour IV infusion), modafinil 300 mg, and placebo.
During the day before dosing on Day 1, participants were administered the KSS at scheduled timepoints. A practice MWT session was performed on Day 1 treatment period 1 (only once during the entire study) to familiarize subjects with the procedures. Study drug was administered in the clinic in the evening on Day 1 of each treatment period. Subjects underwent the MWT and KSS at specified timepoints after the start of the infusion. Subjects were required to stay awake between the MWT tests. Following completion of the IV infusion on Day 2, subjects underwent an additional MWT test. When the final MWT test and cognitive testing were completed, subjects were allowed to sleep (recovery sleep) for approximately 6 hours. PSG recording was collected during this time. Subjects were discharged from the unit after completion on Day 2 with continuing actigraphy upon discharge (to begin on Day −6 before the next treatment period). The interval between each subsequent treatment period was at least 7 days to ensure that the subject's circadian rhythm had returned to a normal cycle. Subject's vital signs, including BP, were monitored during the dosing and testing period. Blood samples for determination of Compound A plasma concentrations were collected at specified timepoints on Days 1 and 2 of each treatment period. Subjects completed the Columbia-Suicide Severity Rating Scale (C-SSRS) during screening, before study drug administration, and before discharge on Day 2 of each treatment period.
Plasma concentrations were tabulated, and descriptive statistics were calculated for each Compound A dose level and are listed in Tables 3-6 for Compound A. The mean plasma concentration versus time plots for Compound A are shown in FIG. 1.

[1] = 44 mg 9-h IV infusion, 0.17 h post infusion end
[2] = 44 mg 9-h IV infusion, 0.5 h post infusion end
[3] = 44 mg 9-h IV infusion, 1 h post infusion end
[4] = 44 mg 9-h IV infusion, 2 h post infusion end
[5] = 44 mg 9-h IV infusion, 3 h post infusion end
[6] = 44 mg 9-h IV infusion, 4 h post infusion end
[7] = 44 mg 9-h IV infusion, 6 h post infusion end
[8] = 44 mg 9-h IV infusion, 9 h post infusion end
[9] = 44 mg 9-h IV infusion, Discharge (post infusion end)
[10] = 44 mg [LD] single 9-hour IV infusion
[11] = 112 mg 9-h IV infusion, 0.17 h post infusion end
[12] = 112 mg 9-h IV infusion, 0.5 h post infusion end
[13] = 112 mg 9-h IV infusion, 1 h post infusion end
[14] = 112 mg 9-h IV infusion, 1 h post infusion start
[15] = 112 mg 9-h IV infusion, 2 h post infusion end
[16] = 112 mg 9-h IV infusion, 2 h post infusion start
[17] = 112 mg 9-h IV infusion, 4 h post infusion start
[18] = 112 mg 9-h IV infusion, 6 h post infusion start
[19] = 112 mg 9-h IV infusion, 9 h post infusion start
[20] = 112 mg 9-h IV infusion, Discharge (post infusion end)
[21] = 112 mg [HD] single 9-hour IV infusion

Plasma Concentration Mean [1]: 76.86 ng/mL
Plasma concentration (GM) [1]: 76.07 ng/mL
Plasma concentration (Median) [1]: 74.80 ng/mL
Plasma Concentration Mean [2]: 50.78 ng/mL
Plasma concentration (GM) [2]: 49.49 ng/mL
Plasma concentration (Median) [2]: 49.10 ng/mL
Plasma Concentration Mean [3]: 40.73 ng/mL
Plasma concentration (GM) [3]: 39.05 ng/mL
Plasma concentration (Median) [3]: 38.15 ng/mL
Plasma Concentration Mean [4]: 22.23 ng/mL
Plasma concentration (GM) [4]: 21.44 ng/mL
Plasma concentration (Median) [4]: 21.00 ng/mL
Plasma Concentration Mean [5]: 20.67 ng/mL
Plasma concentration (GM) [5]: 19.74 ng/mL
Plasma concentration (Median) [5]: 20.35 ng/mL
Plasma Concentration Mean [6]: 16.28 ng/mL
Plasma concentration (GM) [6]: 15.56 ng/mL
Plasma concentration (Median) [6]: 17.25 ng/mL
Plasma Concentration Mean [7]: 10.32 ng/mL
Plasma concentration (GM) [7]: 9.85 ng/mL
Plasma concentration (Median) [7]: 10.75 ng/mL
Plasma Concentration Mean [8]: 5.56 ng/mL
Plasma concentration (GM) [8]: 5.06 ng/mL
Plasma concentration (Median) [8]: 5.06 ng/mL
Plasma Concentration Mean [9]: 4.95 ng/mL
Plasma concentration (GM) [9]: 4.60 ng/mL
Plasma concentration (Median) [9]: 4.78 ng/mL
Ceoi (GM) [10]: 102.5 ng/mL
Ceoi (Mean) [10]: 103.4 ng/mL
Ceoi (Median) [10]: 101.0 ng/mL
t1/2z (Mean) [10]: 3.134 h
t1/2z (Median) [10]: 3.020 h
Plasma Concentration Mean [11]: 196.83 ng/mL
Plasma concentration (Median) [11]: 197.50 ng/mL
Plasma Concentration Mean [12]: 124.21 ng/mL
Plasma concentration (Median) [12]: 121.50 ng/mL
Plasma Concentration Mean [13]: 100.48 ng/mL
Plasma concentration (Median) [13]: 96.90 ng/mL
Plasma Concentration Mean [14]: 162.56 ng/mL
Plasma concentration (GM) [14]: 155.56 ng/mL
Plasma concentration (Median) [14]: 151.00 ng/mL
Plasma Concentration Mean [15]: 58.92 ng/mL
Plasma concentration (Median) [15]: 61.40 ng/mL
Plasma Concentration Mean [16]: 187.06 ng/mL
Plasma concentration (GM) [16]: 185.71 ng/mL
Plasma concentration (Median) [16]: 179.50 ng/mL
Plasma Concentration Mean (112 mg 9-h IV infusion, 3 h post infusion end): 53.01 ng/mL
Plasma Concentration Mean (112 mg 9-h IV infusion, 4 h post infusion end): 41.98 ng/mL
Plasma Concentration Mean [17]: 217.61 ng/mL
Plasma concentration (GM) [17]: 216.56 ng/mL
Plasma concentration (Median) [17]: 210.00 ng/mL
Plasma Concentration Mean (112 mg 9-h IV infusion, 6 h post infusion end): 24.24 ng/mL
Plasma Concentration Mean [18]: 234.06 ng/mL
Plasma concentration (GM) [18]: 232.92 ng/mL
Plasma concentration (Median) [18]: 229.50 ng/mL
Plasma Concentration Mean (112 mg 9-h IV infusion, 9 h post infusion end): 13.78 ng/mL
Plasma Concentration Mean [19]: 253.39 ng/mL
Plasma concentration (GM) [19]: 250.96 ng/mL
Plasma concentration (Median) [19]: 252.50 ng/mL
Plasma Concentration Mean [20]: 13.01 ng/mL
Plasma concentration (GM) [20]: 12.09 ng/mL
Plasma concentration (Median) [20]: 11.50 ng/mL
Ceoi (GM) [21]: 251.0 ng/mL
Ceoi (Mean) [21]: 253.4 ng/mL
Ceoi (Median) [21]: 252.5 ng/mL
t1/2z (Mean) [21]: 3.252 h
t1/2z (Median) [21]: 3.165 h
Compound: COC(=O)N1CCC[C@H](NS(C)(=O)=O)[C@@H]1CO[C@H]1CC[C@@H](c2ccccc2)CC1 [Compound A, methyl (2R,3S)-3-((methylsulfonyl)amino)-2-(((cis-4-phenylcyclohexyl)oxy)methyl)piperidine-1-carboxylate]
